Measurements taken from patent publication US20040176350A1, “Carbapenem compound” (priority 2001, published 2004).

Test: oral absorption test in rats: plasma concentration of meropenem produced by hydrolysis, by HPLC
Assay type: in vivo
Conditions: 20 mg/kg oral, cilastatin 50 mg/kg pre-administered
Procedure: An enzyme inhibitor (cilastatin) (50 mg/kg) was pre-administered to rats (3 per group) and the compound of the present invention (compound of Example 1, 20 mg/kg) was orally administered. The plasma concentration of meropenem produced by hydrolysis was measure at 0.125, 0.25, 0.5, 1.0, 1.5, 2.0 and 3.0 hr by HPLC and the area under plasma concentration-time curve (AUC) was determined.

Molecule `CCCC(=O)OCOC(=O)N1C[C@@H](SC2=C(C(=O)OCOC(=O)C(C)(C)C)N3C(=O)[C@H]([C@@H](C)O)[C@H]3[C@H]2C)C[C@H]1C(=O)N(C)C` [Example 1, pivaloyloxymethyl (1R,5S,6S)-2-[(3S,5S)-(5-N,N-dimethylaminocarbonyl-1-butyryloxymethyloxycarbonyl)-pyrrolidin-3-ylthio]-6-[(1R)-1-hydroxyethyl]-1-methylcarbapen-2-em-3-carboxylate] has an AUC0-3 hr (area under plasma concentration-time curve of meropenem) of 5.06 µg·h/mL, an Average plasma concentration (meropenem in plasma at 0.125 hr) of 0.62 µg/mL and an Average plasma concentration (meropenem in plasma at 0.25 hr) of 1.31 µg/mL. The Average plasma concentration (meropenem in plasma at 0.5 hr) was 2.31 µg/mL, the Average plasma concentration (meropenem in plasma at 1.0 hr) was 2.59 µg/mL and the Average plasma concentration (meropenem in plasma at 1.5 hr) was 2.27 µg/mL. For the same molecule, the Average plasma concentration (meropenem in plasma at 2.0 hr) was 1.56 µg/mL and the Average plasma concentration (meropenem in plasma at 3.0 hr) was 0.55 µg/mL.
